Test results taken from the NIST ThermoML archive (doi:10.1021/je300148f).

Conditions: Liquid, isochoric method

FC(F)(F)C(F)(F)C(F)(F)F [octafluoropropane]
Conditions | mass density [kg/m3]
203.51 K, 5337.7 kPa | 1748.65
203.54 K, 25066 kPa | 1795.66
207.93 K, 30528 kPa | 1795.05
207.94 K, 10279 kPa | 1747.98
212.07 K, 14905 kPa | 1747.39
212.65 K, 36376 kPa | 1794.41
216.5 K, 40978 kPa | 1793.89
216.54 K, 1000.8 kPa | 1689.31
216.88 K, 20281 kPa | 1746.74
217.62 K, 2018.3 kPa | 1689.13
218.87 K, 3201.2 kPa | 1688.94
220.1 K, 4356.8 kPa | 1688.75
221 K, 5191.7 kPa | 1688.62
221.04 K, 25052 kPa | 1746.18
225.96 K, 30368 kPa | 1745.54
226.4 K, 10304 kPa | 1687.87
230.5 K, 35314 kPa | 1744.96
231.73 K, 15327 kPa | 1687.19
234.92 K, 39898 kPa | 1744.41
235.64 K, 915.8 kPa | 1615.88
236.89 K, 20178 kPa | 1686.54
237.72 K, 1980.7 kPa | 1615.62
239.2 K, 3133.7 kPa | 1615.41
240.32 K, 3992.9 kPa | 1615.26
241.96 K, 25015 kPa | 1685.92
241.97 K, 5288.2 kPa | 1615.05
247.06 K, 29611 kPa | 1685.32
248.4 K, 10248 kPa | 1614.25
253.05 K, 1037.7 kPa | 1548.82
253.35 K, 35422 kPa | 1684.57
254.58 K, 2042.7 kPa | 1548.62
254.84 K, 15219 kPa | 1613.5
256.2 K, 3092.6 kPa | 1548.41
257.67 K, 4032.3 kPa | 1548.23
257.99 K, 39644 kPa | 1684.03
259.38 K, 5163.9 kPa | 1548.03
260.6 K, 5918.9 kPa | 1547.89
261.38 K, 20247 kPa | 1612.75
262.2 K, 6953.3 kPa | 1547.71
264.92 K, 1305.5 kPa | 1498.9
266.69 K, 2167.6 kPa | 1498.5
267.42 K, 10407 kPa | 1547.12
267.61 K, 24742 kPa | 1612.07
268.4 K, 3123.5 kPa | 1498.5
270.01 K, 4060.3 kPa | 1498.31
272.1 K, 5218.8 kPa | 1498.08
273.85 K, 29781 kPa | 1611.39
274.19 K, 14632 kPa | 1546.4
278.85 K, 1048.7 kPa | 1431.66
280.31 K, 34598 kPa | 1610.69
280.62 K, 9990.2 kPa | 1497.18
280.96 K, 2016.5 kPa | 1431.43
282.61 K, 20193 kPa | 1545.52
283.12 K, 3037.6 kPa | 1431.2
285.2 K, 4021.6 kPa | 1430.98
287.19 K, 39685 kPa | 1609.96
287.23 K, 4975.5 kPa | 1430.78
289.39 K, 15154 kPa | 1496.29
290.43 K, 25199 kPa | 1544.72
294.19 K, 1027.2 kPa | 1348.77
296.89 K, 2032 kPa | 1348.25
298.14 K, 10127 kPa | 1429.72
298.14 K, 10227 kPa | 1432.13
298.15 K, 20139 kPa | 1495.43
298.17 K, 30128 kPa | 1543.94
299.56 K, 3026.3 kPa | 1348.25
302.24 K, 4025.2 kPa | 1348
305.19 K, 5144.5 kPa | 1347.73
305.57 K, 34457 kPa | 1543.21
306.47 K, 24759 kPa | 1494.63
308.23 K, 15310 kPa | 1431.18
313.2 K, 39261 kPa | 1542.45
316.93 K, 30165 kPa | 1493.65
318.2 K, 1978.9 kPa | 1206.47
318.2 K, 2006.9 kPa | 1206.47
318.2 K, 10061 kPa | 1346.6
318.2 K, 19323 kPa | 1427.89
318.2 K, 20116 kPa | 1430.27
318.21 K, 9971.7 kPa | 1346.6
322.1 K, 2987.3 kPa | 1206.16
325.72 K, 35057 kPa | 1492.81
326.06 K, 3974.1 kPa | 1205.86
328.08 K, 24771 kPa | 1429.38
329.83 K, 4928.6 kPa | 1205.58
330.81 K, 14738 kPa | 1345.54
332.72 K, 39008 kPa | 1492.14
339.5 K, 7422.8 kPa | 1204.86
341.2 K, 30200 kPa | 1425.83
344.83 K, 20114 kPa | 1344.37
353.16 K, 23269 kPa | 1343.69
353.16 K, 35743 kPa | 1424.77
353.17 K, 10953 kPa | 1203.86
